Drawing on US20200131669A1, “CYCLIC PEPTIDE COMPOUND HAVING HIGH MEMBRANE PERMEABILITY, AND LIBRARY CONTAINING SAME” (Chugai Seiyaku Kabushiki Kaisha, priority 2017, published 2020), this text covers Papp A→B for 17 compounds.

SMILES strings stand for the structures. Starred links: 1 amine or outer side, 2 acyl side, 3 side chain; linkers in the order of their positions; H or OH if unused. Positions of bridges follow the written chain, without caps; N, C: chain ends. Non-standard residues stand in square brackets, D forms with d. Residues, ends and D or L forms follow the SMILES beside them. ξ: configuration not given here. *: point of attachment. Glu(NHSO2Me) = CS(=O)(=O)NC(=O)CC[C@H](N)C(=O)O; NMePhe(3-Cl) = CN[C@@H](Cc1cccc(Cl)c1)C(=O)O; Ala(4-thiazolyl) = N[C@@H](Cc1cscn1)C(=O)O; NMeW = CN[C@@H](Cc1c[nH]c2ccccc12)C(=O)O; NMehPhe = CN[C@@H](CCc1ccccc1)C(=O)O; Ethyl(2-morpholino) = C1CN(CC*)CCO1; Gly(NCH2CH2Ph) = O=C(O)CNCCc1ccccc1; X9 = O=C(CN(CCOc1ccccc1)[*:1])[*:2]; X3 = O=C([C@H](CCCCO)N[*:1])[*:2]; Gly(N-(CH2)2OEt) = CCOCCNCC(=O)O; NMeF = CN[C@@H](Cc1ccccc1)C(=O)O; NMeI = CC[C@H](C)[C@H](NC)C(=O)O; hPhe = N[C@@H](CCc1ccccc1)C(=O)O; NMeL = CN[C@@H](CC(C)C)C(=O)O; Propyl(2R-OH) = C[C@@H](O)C*; NMeV = CN[C@H](C(=O)O)C(C)C; NMeAbu = CC[C@H](NC)C(=O)O; NMeA = CN[C@@H](C)C(=O)O; Piperidide = C1CCN(*)CC1; NBuGly = CCCCNCC(=O)O; ξS = NC(CO)C(=O)O; Sar = CNCC(=O)O; tBu = CC(C)(C)*

The first data set is described as follows: Caco-2 membrane permeability, improved method as used in the following Examples (96-well, 20 to 24 h preincubation). The class given is in vitro ADME. To be noted: human, Caco-2, Caco-2. The procedure, abridged: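 Caco-2 monolayers were grown three weeks and preincubated 20–24 h at 37 °C with compound in DMEM+FaSSIF (1% DMSO) apically. The assay then used compound in FaSSIF/HBSS (1% DMSO, pH 6.0) apically and HBSS with 4% BSA (pH 7.4) basally. Basal samples were taken at 180 min for LC/MS, and Papp (cm/sec) was calculated.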
A general note: Caco-2 cells form a polarised layer with tight junctions and transporters.
A word on the Papp A→B: it is how fast a substance crosses the layer from the apical side. `CCCCN1CC(=O)N(C)[C@@H](Cc2ccccc2)C(=O)N(C)[C@@H](CC(C)C)C(=O)N[C@@H](C(C)C)C(=O)N(C)[C@@H](CC(C)C)C(=O)N[C@H](C(=O)N2CCCCC2)CC(=O)N(C)CC(=O)N(C)[C@@H](CC(C)C)C(=O)NC(COCCN2CCOCC2)C(=O)N(C)[C@@H](CC(C)C)C(=O)N[C@@H]([C@@H](C)O)C1=O` (stereo partly drawn) [pd484] ([Sar][NMeL][ξS](Ethyl(2-morpholino))[NMeL]T[NBuGly][NMeF][NMeL]V[NMeL]D-Piperidide; lactam N-11): the apical-to-basolateral permeability (Papp A→B) at 180 min turned out to be 1.8 ×10⁻⁶ cm/s. The compound `CC[C@H]1C(=O)N[C@@H]([C@@H](C)O)C(=O)N(CCc2ccccc2)CC(=O)N(C)[C@@H](CC(C)C)C(=O)N[C@H](COC(C)(C)C)C(=O)N(C)[C@@H](CC(C)C)C(=O)N(C)[C@@H](CC)C(=O)N[C@H](C(=O)N2CCCCC2)CC(=O)N[C@H](C)C(=O)N(C)[C@@H](Cc2ccccc2)C(=O)N[C@@H](CC(C)C)C(=O)N1C` [pd409] ([dA][NMeF]L[NMeAbu]T[Gly(NCH2CH2Ph)][NMeL][dS](tBu)[NMeL][NMeAbu]D-Piperidide; lactam N-11) came in with a Papp A→B at 180 min of 1.4 ×10⁻⁶ cm/s. On the same count and under the same terms, under `CCOCCN1CC(=O)N(C)[C@@H](CC(C)C)C(=O)N[C@H](C(=O)N2CCCCC2)CC(=O)N(C)[C@@H](C(C)C)C(=O)N[C@@H](CC(C)C)C(=O)N(C)[C@@H](CC)C(=O)N(C)[C@@H](Cc2ccccc2)C(=O)N[C@@H](CC(C)C)C(=O)N(C)[C@@H](Cc2ccccc2)C(=O)N(C)[C@@H](CC)C(=O)N[C@@H]([C@@H](C)O)C1=O` [pd417] ([NMeV]L[NMeAbu][NMeF]L[NMeF][NMeAbu]T[Gly(N-(CH2)2OEt)][NMeL]D-Piperidide; lactam N-11) stands 1 ×10⁻⁶ cm/s. As for `CC(C)C[C@@H]1NC(=O)[C@H](C)N(C)C(=O)C[C@@H](C(=O)N2CCCCC2)NC(=O)[C@H](CC(C)C)N(C)C(=O)CN(C)C(=O)[C@H](CCCCO)NC(=O)[C@H](CC(C)C)N(C)C(=O)[C@H](Cc2ccccc2)N(C)C(=O)[C@H](CC(C)C)NC(=O)[C@H](Cc2ccccc2)N(C)C(=O)[C@H](CC(C)C)N(C)C1=O` [pd451] ([NMeA]L[NMeL][NMeF]L[NMeF][NMeL][X3][Sar][NMeL]D-Piperidide; lactam N-11), the Papp A→B at 180 min was determined as 4.1 ×10⁻⁶ cm/s. This Papp A→B at 180 min is about 4.1-fold higher than that of the compound before. On the same count and under the same terms, under `CC(C)C[C@H]1C(=O)N(C)[C@@H](Cc2ccccc2)C(=O)N[C@@H](COC(C)(C)C)C(=O)N(C)[C@@H](C)C(=O)N[C@H](C(=O)N2CCCCC2)CC(=O)N(C)[C@@H](C)C(=O)N(C)[C@@H](Cc2ccccc2)C(=O)N[C@@H](CCc2ccccc2)C(=O)N(C)[C@@H](CC(C)C)C(=O)N[C@@H]([C@@H](C)O)C(=O)N(C)CC(=O)N1C` [pd310] ([NMeA][NMeF][hPhe][NMeL]T[Sar][NMeL][NMeF]S(tBu)[NMeA]D-Piperidide; lactam N-11) stands 1.6 ×10⁻⁶ cm/s; under `CC[C@H]1C(=O)N(C)[C@@H](Cc2ccccc2)C(=O)N[C@@H](C)C(=O)N(C)[C@@H](CC(C)C)C(=O)N(C)[C@@H](CC)C(=O)N[C@@H]([C@@H](C)O)C(=O)N(CCOc2ccccc2)CC(=O)N(C)[C@@H](CC(C)C)C(=O)N[C@H](C(=O)N2CCCCC2)CC(=O)N(C)[C@@H](C(C)C)C(=O)N[C@@H](CC(C)C)C(=O)N1C` [pd420] ([NMeV]L[NMeAbu][NMeF]A[NMeL][NMeAbu]T[X9][NMeL]D-Piperidide; lactam N-11), 4.5 ×10⁻⁶ cm/s. Still for that read-out and setting: under `CC(C)C[C@@H]1NC(=O)[C@H](CC(C)C)N(C)C(=O)CN(C)C(=O)[C@H]([C@@H](C)O)NC(=O)[C@H](CC(C)C)N(C)C(=O)[C@H](C(C)C)NC(=O)[C@H](Cc2ccccc2)N(C)C(=O)[C@@H](C)NC(=O)C[C@@H](C(=O)N2CCCCC2)NC(=O)[C@H](CC(C)C)N(C)C(=O)[C@H](CCc2ccccc2)N(C)C1=O` [pd321] ([dA][NMeF]V[NMeL]T[Sar][NMeL]L[NMehPhe][NMeL]D-Piperidide; lactam N-11) stands 1.3 ×10⁻⁶ cm/s; under `CC[C@H](C)[C@H]1C(=O)N[C@@H](COC[C@@H](C)O)C(=O)N(C)CC(=O)N(C)[C@@H](CC(C)C)C(=O)N[C@H](C(=O)N2CCCCC2)CC(=O)N(C)[C@@H](C)C(=O)N[C@@H](CC(C)C)C(=O)N(C)[C@@H](CC(C)C)C(=O)N(C)[C@@H](Cc2ccccc2)C(=O)N[C@@H](CC(C)C)C(=O)N(C)[C@@H](Cc2ccccc2)C(=O)N1C` [pd494] ([NMeA]L[NMeL][NMeF]L[NMeF][NMeI]S(Propyl(2R-OH))[Sar][NMeL]D-Piperidide; lactam N-11), 5.2 ×10⁻⁶ cm/s. Still for that read-out and setting: for `CC[C@H]1C(=O)N[C@@H]([C@@H](C)O)C(=O)N(C)CC(=O)N(C)[C@@H](Cc2ccccc2)C(=O)N(C)[C@@H](CC)C(=O)N[C@@H](COC(C)(C)C)C(=O)N(C)[C@@H](CC(C)C)C(=O)N[C@H](C(=O)N2CCCCC2)CC(=O)N(CCc2ccccc2)CC(=O)N(C)[C@@H](CC(C)C)C(=O)N[C@@H](CC(C)C)C(=O)N1C` [pd412] ([Gly(NCH2CH2Ph)][NMeL]L[NMeAbu]T[Sar][NMeF][NMeAbu]S(tBu)[NMeL]D-Piperidide; lactam N-11) the value was 1.5 ×10⁻⁶ cm/s; for `CC[C@H](C)[C@@H]1NC(=O)[C@H](CC(C)C)N(C)C(=O)[C@H](COC[C@@H](C)O)NC(=O)[C@H](Cc2ccccc2)N(C)C(=O)CN(C)C(=O)C[C@@H](C(=O)N2CCCCC2)NC(=O)[C@H](CC(C)C)N(C)C(=O)[C@H](COC(C)(C)C)NC(=O)[C@H](CC(C)C)N(C)C(=O)[C@H](Cc2ccccc2)N(C)C(=O)CN(C)C1=O` [pd497] ([Sar][NMeF]S(Propyl(2R-OH))[NMeL]I[Sar][NMeF][NMeL]S(tBu)[NMeL]D-Piperidide; lactam N-11), 3.3 ×10⁻⁶ cm/s; for `CCCCN1CC(=O)N(C)[C@@H](CC(C)C)C(=O)N[C@@H](CCC(=O)NS(C)(=O)=O)C(=O)N(C)[C@@H](Cc2cccc(Cl)c2)C(=O)N(C)[C@@H](C(C)C)C(=O)N[C@H](C(=O)N2CCCCC2)CC(=O)N[C@H](CC(C)C)C(=O)N(C)[C@@H](Cc2cccc(Cl)c2)C(=O)N[C@@H](CC(C)C)C(=O)N(C)[C@@H](CC(C)C)C(=O)N[C@@H]([C@@H](C)O)C1=O` [pd60] ([dL][NMePhe(3-Cl)]L[NMeL]T[NBuGly][NMeL][Glu(NHSO2Me)][NMePhe(3-Cl)][NMeV]D-Piperidide; lactam N-11), 0.01 ×10⁻⁶ cm/s.

Still in this data set, the particulars now being: human, Caco-2, Caco-2 (cm/sec).
As to `CC[C@H](C)[C@@H]1NC(=O)[C@H](Cc2ccccc2)N(C)C(=O)[C@H](C)N(C)C(=O)C[C@@H](C(=O)N(C)[C@@H](Cc2ccccc2)C(=O)N(C)[C@@H](Cc2ccccc2)C(=O)N[C@@H](C)C(=O)N2CCCCC2)NC(=O)[C@H](CC(C)C)N(C)C(=O)[C@H](Cc2ccccc2)N(C)C(=O)[C@H]([C@@H](C)O)NC(=O)[C@H](CC(C)C)N(C)C(=O)[C@H](CC(C)C)N(C)C(=O)[C@H](C)N(C)C1=O` [pd240] ([NMeA][NMeF]I[NMeA][NMeL][NMeL]T[NMeF][NMeL]D[NMeF][NMeF]A-Piperidide; lactam N-10), the apical-to-basolateral permeability (Papp A→B) at 180 min came to 0.06 ×10⁻⁶ cm/s. The same measure, in the same setting: for `CC(C)C[C@H]1C(=O)N(C)[C@@H](Cc2c[nH]c3ccccc23)C(=O)N(C)[C@@H](Cc2ccccc2)C(=O)N[C@@H]([C@@H](C)O)C(=O)N(C)[C@@H](C)C(=O)N(C)[C@@H](CC(C)C)C(=O)N[C@H](C(=O)N2CCCCC2)CC(=O)N(C)[C@@H](C)C(=O)N(C)[C@@H](CC(C)C)C(=O)N(C)[C@@H](CC(C)C)C(=O)N[C@@H](C)C(=O)N1C` [pd104] ([NMeA][NMeL][NMeL]A[NMeL][NMeW][NMeF]T[NMeA][NMeL]D-Piperidide; lactam N-11) the value was 0.025 ×10⁻⁶ cm/s; for `CC(C)C[C@@H]1NC(=O)[C@H](Cc2ccccc2)N(C)C(=O)[C@H](CC(C)C)N(C)C(=O)[C@H](Cc2ccccc2)NC(=O)[C@@H](C)NC(=O)C[C@@H](C(=O)N2CCCCC2)NC(=O)[C@H](Cc2ccccc2)N(C)C(=O)CN(C)C(=O)[C@H](Cc2ccccc2)NC(=O)[C@H](CC(C)C)N(C)C(=O)[C@H]([C@@H](C)O)NC1=O` [pd244] ([dA]F[NMeL][NMeF]LT[NMeL]F[Sar][NMeF]D-Piperidide; lactam N-11), 0.045 ×10⁻⁶ cm/s. The same measure, in the same setting: for `CC(C)C[C@@H]1NC(=O)[C@H](Cc2cccc(Cl)c2)N(C)C(=O)[C@@H](C)NC(=O)C[C@@H](C(=O)N2CCCCC2)NC(=O)[C@H](CC(C)C)N(C)C(=O)[C@H](Cc2ccccc2)N(C)C(=O)[C@H](COC(C)(C)C)NC(=O)[C@H](C(C)C)N(C)C(=O)CN(C)C(=O)[C@H]([C@@H](C)O)NC(=O)[C@H](CC(C)C)N(C)C1=O` [pd157] ([dA][NMePhe(3-Cl)]L[NMeL]T[Sar][NMeV]S(tBu)[NMeF][NMeL]D-Piperidide; lactam N-11) the value was 2.2 ×10⁻⁶ cm/s; for `CC(C)C[C@@H]1NC(=O)[C@H](CC(C)C)N(C)C(=O)[C@H](CC(C)C)N(C)C(=O)CNC(=O)[C@H](Cc2ccccc2)N(C)C(=O)[C@H](Cc2cscn2)NC(=O)[C@H](CC(C)C)N(C)C(=O)[C@H](Cc2ccccc2)NC(=O)[C@H](C)NC(=O)C[C@@H](C(=O)N(C)[C@@H](Cc2ccccc2)C(=O)N[C@@H](C)C(=O)N2CCCCC2)NC1=O` [pd235] (AF[NMeL][Ala(4-thiazolyl)][NMeF]G[NMeL][NMeL]LD[NMeF]A-Piperidide; lactam N-10), 0.1 ×10⁻⁶ cm/s. The same measure, in the same setting: for `CC(C)C[C@@H]1NC(=O)[C@H](Cc2ccccc2)N(C)C(=O)[C@@H](C(C)C)NC(=O)C[C@@H](C(=O)N2CCCCC2)NC(=O)[C@H](Cc2ccccc2)N(C)C(=O)[C@H](Cc2ccccc2)N(C)C(=O)[C@H](C(C)C)NC(=O)[C@H](CC(C)C)N(C)C(=O)CN(C)C(=O)[C@H]([C@@H](C)O)NC(=O)[C@H](CC(C)C)N(C)C1=O` [pd221] ([dV][NMeF]L[NMeL]T[Sar][NMeL]V[NMeF][NMeF]D-Piperidide; lactam N-11) the value was 1.1 ×10⁻⁶ cm/s.
